Experimental data as given in ChEMBL document CHEMBL1130402, “Effect of stereochemistry on the clearance mechanism of 111In(III)-labeled D- or L-benzyldiethylenetriaminepentaacetic acid” (J Med Chem, 1997).

How the values were obtained:
Rattus norvegicus [1] = species: Rattus norvegicus; assay: Kidney uptake in normal Wistar rats at 30 min; assay type: ADME, organism-based; details: in vivo, 0.5 h
Rattus norvegicus [2] = species: Rattus norvegicus; assay: The biodistribution in bone in normal Wistar rats at 30 min; assay type: ADME, organism-based, Bone element; details: in vivo, 0.5 h
Rattus norvegicus [3] = species: Rattus norvegicus; assay: The biodistribution in blood in normal Wistar rats at 30 min; assay type: ADME, organism-based; details: in vivo, 0.5 h
Rattus norvegicus [4] = species: Rattus norvegicus; assay: Kidney uptake in normal Wistar rats at 15 min; assay type: ADME, organism-based; details: in vivo, 0.25 h
Rattus norvegicus [5] = species: Rattus norvegicus; assay: Ratio of biodistribution in liver and blood in normal Wistar rats at 15 min. after injecting the compound; assay type: ADME, organism-based; details: in vivo, 0.25 h
Rattus norvegicus [6] = species: Rattus norvegicus; assay: Ratio of biodistribution in kidney and blood in normal Wistar rats at 15 min after injecting the compound.; assay type: ADME, organism-based; details: in vivo, 0.25 h
[7] = Compound was tested for % clearance through the urine in jaundiced (TR-) Wistar rats; assay type: ADME, organism-based; details: rat
Rattus norvegicus [8] = species: Rattus norvegicus; assay: The biodistribution in liver in normal Wistar rats at 5 min; assay type: ADME, organism-based; details: in vivo
Rattus norvegicus [9] = species: Rattus norvegicus; assay: Ratio of biodistribution in kidney and blood in normal Wistar rats at 60 min after injecting the compound; assay type: ADME, organism-based; details: in vivo, 1 h
Rattus norvegicus [10] = species: Rattus norvegicus; assay: The biodistribution in liver in normal Wistar rats at 30 min; assay type: ADME, organism-based; details: in vivo, 0.5 h
Rattus norvegicus [11] = species: Rattus norvegicus; assay: Kidney uptake in normal Wistar rats at 5 min; assay type: ADME, organism-based; details: in vivo
Rattus norvegicus [12] = species: Rattus norvegicus; assay: The biodistribution in blood in normal Wistar rats at 15 min; assay type: ADME, organism-based; details: in vivo, 0.25 h
Rattus norvegicus [13] = species: Rattus norvegicus; assay: Ratio of biodistribution in liver and blood in normal Wistar rats at 60 min. after injecting the compound; assay type: ADME, organism-based; details: in vivo, 1 h
Rattus norvegicus [14] = species: Rattus norvegicus; assay: Ratio of biodistribution in kidney and blood in normal Wistar rats at 30 min after injecting the compound; assay type: ADME, organism-based; details: in vivo, 0.5 h
Rattus norvegicus [15] = species: Rattus norvegicus; assay: The biodistribution in blood in normal Wistar rats at 5 min; assay type: ADME, organism-based; details: in vivo
Rattus norvegicus [16] = species: Rattus norvegicus; assay: The biodistribution in bone in normal Wistar rats at 15 min; assay type: ADME, organism-based, Bone element; details: in vivo, 0.25 h
Rattus norvegicus [17] = species: Rattus norvegicus; assay: The biodistribution in blood in normal Wistar rats at 60 min; assay type: ADME, organism-based; details: in vivo, 1 h
Rattus norvegicus [18] = species: Rattus norvegicus; assay: Ratio of biodistribution in liver and blood in normal Wistar rats at 30 min. after injecting the compound; assay type: ADME, organism-based; details: in vivo, 0.5 h
[19] = Compound was tested for % clearance through the faeces in jaundice Wistar rats; assay type: ADME, organism-based; details: rat, read-out: Feces
Rattus norvegicus [20] = species: Rattus norvegicus; assay: The biodistribution in bone in normal Wistar rats at 5 min; assay type: ADME, organism-based, Bone element; details: in vivo
Rattus norvegicus [21] = species: Rattus norvegicus; assay: Kidney uptake in normal Wistar rats at 60 min; assay type: ADME, organism-based; details: in vivo, 1 h
[22] = Compound was tested for % clearance through the urine in normal rat; assay type: ADME, organism-based
Rattus norvegicus [23] = species: Rattus norvegicus; assay: The biodistribution in liver in normal Wistar rats at 60 min; assay type: ADME, organism-based; details: in vivo, 1 h
Rattus norvegicus [24] = species: Rattus norvegicus; assay: The biodistribution in bone in normal Wistar rats at 60 min; assay type: ADME, organism-based, Bone element; details: in vivo, 1 h
Rattus norvegicus [25] = species: Rattus norvegicus; assay: The biodistribution in liver in normal Wistar rats at 15 min; assay type: ADME, organism-based; details: in vivo, 0.25 h
[26] = Compound was tested for % clearance through the faeces in Wistar rats; assay type: ADME, organism-based; details: rat, read-out: Feces
Rattus norvegicus [27] = species: Rattus norvegicus; assay: Ratio of biodistribution in liver and blood in normal Wistar rats at 5 min. after injecting the compound; assay type: ADME, organism-based; details: in vivo
Rattus norvegicus [28] = species: Rattus norvegicus; assay: Ratio of biodistribution in kidney and blood in normal Wistar rats at 5 min after injecting the compound.; assay type: ADME, organism-based; details: in vivo
[29] = Compound was tested for % clearance through the faeces in jaundiced (TR-) Wistar rats; assay type: ADME, organism-based; details: rat, read-out: Feces
Rattus norvegicus [30] = species: Rattus norvegicus; assay: Ratio of biodistribution in kidney and blood in normal Wistar rats at 5 min after injecting the compound; assay type: ADME, organism-based; details: in vivo
[31] = Compound was tested for % clearance through the faeces in normal Wistar rats; assay type: ADME, organism-based; details: rat, read-out: Feces
Rattus norvegicus [32] = species: Rattus norvegicus; assay: Ratio of biodistribution in kidney and blood in normal Wistar rats at 15 min after injecting the compound; assay type: ADME, organism-based; details: in vivo, 0.25 h

ID/organ (Rattus norvegicus [1]) [%] | ID/organ (Rattus norvegicus [2]) [%] | ID/organ (Rattus norvegicus [3]) [%] | ID/organ (Rattus norvegicus [4]) [%] | ID/organ (Rattus norvegicus [5]) | dose excreted [7] [%] | ID/organ (Rattus norvegicus [8]) [%] | ID/organ (Rattus norvegicus [9]) | ID/organ (Rattus norvegicus [10]) [%] | ID/organ (Rattus norvegicus [11]) [%] | ID/organ (Rattus norvegicus [12]) [%] | ID/organ (Rattus norvegicus [13]) | ID/organ (Rattus norvegicus [14]) | ID/organ (Rattus norvegicus [15]) [%] | ID/organ (Rattus norvegicus [16]) [%] | ID/organ (Rattus norvegicus [17]) [%] | ID/organ (Rattus norvegicus [18]) | ID/organ (Rattus norvegicus [20]) [%] | ID/organ (Rattus norvegicus [21]) [%] | dose excreted [22] [%] | Structure (SMILES) | further results
0.92 | 2.31 | 2.03 | 1.63 | 1.69 | 80.4 | 15.6 | 0.82 | 3.15 | 3.45 | 4.67 | 1.6 | 0.46 | 10.7 | 3.81 | 0.71 | 1.55 | 3.28 | 0.57 | 51.9 | O=C(O)CN(CCN(CCN(CC(=O)O)CC(=O)O)[C@H](Cc1ccccc1)C(=O)O)CC(=O)O | ID/organ (Rattus norvegicus [6]): 0.36; dose excreted [19]: 10.6%; ID/organ (Rattus norvegicus [23]): 1.1%; ID/organ (Rattus norvegicus [24]): 2.4%; ID/organ (Rattus norvegicus [25]): 7.63%; dose excreted [26]: 42.8%; ID/organ (Rattus norvegicus [27]): 1.46; ID/organ (Rattus norvegicus [28]): 0.33
1.96 | 2.17 | 2.66 | 3.04 | 1.1 | 85 | 13.2 | 1.3 | 2.37 | 4.74 | 6.36 | 0.99 | 0.74 | 12.7 | 3.76 | 0.86 | 0.9 | 4.59 | 1.1 | 62 | O=C(O)CN(CCN(CCN(CC(=O)O)CC(=O)O)[C@@H](Cc1ccccc1)C(=O)O)CC(=O)O | dose excreted [29]: 3.3%; ID/organ (Rattus norvegicus [30]): 0.37; dose excreted [31]: 29.2%; ID/organ (Rattus norvegicus [23]): 0.82%; ID/organ (Rattus norvegicus [24]): 2.43%; ID/organ (Rattus norvegicus [25]): 6.84%; ID/organ (Rattus norvegicus [32]): 0.48; ID/organ (Rattus norvegicus [27]): 1.04
